Data published in patent EP1018299A2, “Plant treatment agents” (BAYER AG, priority 1992, dated 1994).

Assay: UDOS (unilateral desorption from the outer surface): effect of accelerators on the mobility of 14C-labelled 2,4-D in isolated cuticles
Format: in vitro ADME, Citrus
Details: Abb. 11; for Zeitabhängigkeit der Effekte: effects increased with time; for Wirkungen (Effekt auf die Mobilität von 2,4-D): compared with Heptanol, Octanol, Nonanol and Decanol

SMILES | Zeitabhängigkeit der Effekte | Wirkungen (Effekt auf die Mobilität von 2,4-D)
CCCCCCCCCCCCO [Dodecanol] | stark zeitabhängig | deutlich niedriger
CCCCCCO [Hexanol] | stark zeitabhängig | deutlich niedriger
